The values that follow come from patent US9937178B2, “Methods of identifying and using MDM2 inhibitors” (DUKE UNIVERSITY, priority 2011, dated 2018).

One assay concerns AU565-derived tumor. Nature of the assay: AU565 mammary fat pad xenograft. To be noted: 100 mg/kg each drug, twice daily by oral gavage. Type of assay: in vivo, mouse.
The subject of a further assay is BT474 xenografts. Nature of the assay: BT474 mammary fat pad xenograft. The following applies: 100 mg/kg each drug, twice daily by oral gavage.
The next assay has as its system rBT474 xenografts. Description: rBT474 mammary fat pad xenograft. The following applies: 100 mg/kg each drug, twice daily by oral gavage.
The next assay has as its system rAU565-derived tumor. Description: rAU565 mammary fat pad xenograft. To be noted: 100 mg/kg each drug, twice daily by oral gavage.
In assay [1] the test system is Mcl-1. Description: Immunoblot of Mcl-1 protein levels. It is filed as cell-based. The following applies: rSKBR3 cells, 1 μM lapatinib, 10 μM Nutlin-3a, 36 hours, z-VAD. The procedure:
FIG. 3 is a set of photographs showing that Mcl-1 is stabilized in lapatinib-resistant cells. […] FIG. 3B is a set of immunoblots showing the levels of HER2 and phospho-HER2 in untreated cells and cells treated with lapatinib. Cells were treated with or without lapatinib (1 μM) for 24 hours in the presence of the caspase inhibitor z-VAD (50 μM). The cells were harvested and cell lysates were immunoblotted using antibodies against phospho-HER2 (Y877) and total HER2. FIG. 3C is an immunoblot for phospho-AKT (T308) and total AKT. BT474 and rBT474 cells were treated with 1 μM lapatinib in the presence of 50 μM z-VAD. At the indicated time points, the cells were harvested and immunoblotted. FIG. 3D is an immunoblot for phospho-Erl1/2(T202/Y204) and total Erk1/2. BT474 and rBT474 cells were treated with 1 μM lapatinib in the presence of 50 μM z-VAD. At the indicated time points, the cells were harvested and immunoblotted. FIG. 3E is an immunoblot for Mcl-1, Bim, and Actin. BT474 and rBT474 cells (left) or SKBR3 and rSKBR3 cells (right) were treated with 1 μM lapatinib. The cells were harvested at the indicated time points and immunoblotted. FIG. 3F is an autoradiograph showing the ^35[S] radioactivity in lysates containing ^35[S]-Mcl-1 at the indicated time points. ^35[S]-labeled Mcl-1 protein was incubated in cell-free lysates prepared from BT474 and rBT474 cells (top) or SKBR3 and rSKBR3 cells (bottom). FIG. 3G is an autograph showing the ^35[S]-labeled Mcl-1 to monitor Mcl-1 stability over time. The ^35[S]-labeled Mcl-1 was incubated in lysates prepared from rBT474 cells treated with or without 1 μM lapatinib. FIG. 3H is an immunoblot for HA. SKBR3 or rSKBR3 cells were co-transfected with FLAG-Mcl-1 and HA-Ubiquitin (Ub). […] Cells were harvested after treatment with 10 μM MG 132 for 4 hours. FLAG-Mcl-1 was retrieved by immunoprecipitation using anti-flag agarose, and Mcl-1 ubiquitylation was analyzed by immunoblotting for HA (*non-specific band, **IgG heavy chain).
For orientation: Immunoblotting shows a protein as a band on a membrane.

A further assay has as its system PP5. Nature of the assay: Immunoblot of PP5 protein levels. It is filed as cell-based. The following applies: rSKBR3 cells, 1 μM lapatinib, 10 μM Nutlin-3a, 36 hours, z-VAD. Here is the method: FIG. 7 is a set of photographs and graphs showing PP5 stability and post-cytochrome c protection in lapatinib-resistant cells. FIG. 7A is an immunoblot for caspase-9 (cleaved and non-cleaved) and cleaved caspase-3 (C9 and C3, respectively) showing rBT474 cells cultured in the absence or presence of 1 μM lapatinib for one week, as compared to BT474 cells which were maintained without lapatinib. Cytosolic lysates prepared from BT474 or rBT474 were incubated with 1 mM dATP and various amounts of cytochrome c (CC). FIG. 7B is a set of graphs showing Caspase 3 activity in the indicated cell lysates over time. Caspase-3 activity was assayed by measuring cleavage of DEVD-pNA following incubation of the cell lysates with 1 mM dATP and various concentrations of cytochrome c. FIG. 7C is an autoradiograph of ^32P and an immunoblot showing the percentage of the protein phosphorylated. In the presence of [γ-^32P]ATP, recombinant His-tagged HSP90β proteins (wild type and the indicated mutants) on nickel beads were incubated with the HSP90β-targeted kinase casein kinase 2. FIG. 7D is an autoradiograph and corresponding immunoblot showing BT474 or rBT474 cells after being cultured in the absence or presence of 1 μM lapatinib for 24 hours in the presence of z-VAD. Recombinant His-tagged HSP90β protein on nickel beads was incubated with the cell lysates in the presence of [γ-^32P]ATP. FIG. 7E is an immunoblot for phospho-Hsp90β (Ser226) and total HSP90β at various time points. […] FIG. 7F is a set of graphs showing FACS analysis for the phosphorylation status of Hsp90β (Ser255). BT474 or rBT474 cells cultured in the presence of 1 μM lapatinib for 24 hours were fixed with formaldehyde and incubated with phospho-Hsp90β (Ser255) antibody followed by an Alexa488-conjugated secondary antibody. FIG. 7G is an immunoblot for PP5 and actin at the indicated time points. BT474 and rBT474 (left) or AU565 and rAU565 cells (right) were treated with 1 μM lapatinib. FIG. 7H is an autoradiograph of immunoprecipitated FLAG-PP5 using an anti-FLAG agarose. […]

Another assay deals with CAS. Description: Immunoblot of CAS protein levels. It is filed as cell-based. The following applies: rSKBR3 cells, 1 μM lapatinib, 10 μM Nutlin-3a, 36 hours, z-VAD. The procedure: FIG. 11 is a set of photographs of immunoblots showing CAS degradation in lapatinib-resistant cells. FIG. 11A is an immunoblot for CAS and Actin. BT474 and rBT474 (left) or AU565 and rAU565 cells (right) cultured in the absence of lapatinib for one week were treated with 1 μM lapatinib and the cells were harvested at various time points. FIG. 11B is an immmunoblot for CAS and Actin. rBT474 cells were maintained in the presence of […] lapatinib and the cells were harvested at various time points following removal of lapatinib. FIG. 11C is an immunoblot for FLAG and actin. BT474 and rBT474 cells were transiently transfected with FLAG-tagged CAS and subsequently treated with 50 μg/ml cycloheximide (CHX) and 1 μM lapatinib and the cells were harvested at various time points. FIG. 11D is an immunoblot using HA to analyze ubiquitination of CAS. BT474 and rBT474 (left) or SKBR3 and rSKBR3 cells (right) were co-transfected with FLAG-CAS and HA-Ub. […] After treatment with 10 μM MG 132 for 8 hours, cells were harvested and FLAG-CAS was retrieved by immunoprecipitation. FIG. 11E is an immunoblot for FLAG-tagged proteins retrieved by immunoprecipitation and association with MDM2. H1299 cells were transfected with empty vector, FLAG-CAS^W127A, or FLAG-CAS wild type. FIG. 11F is an immunoblot for CAs after immunoprecipitation for FLAG. H1299 cells were transfected with empty vector, FLAG-CAS^W127A, or FLAG-CAS wild type. Cells were treated with 10 μM MG132 for 3 hours. […] SKBR3 cells were transfected with increasing amounts of MDM2. After 48 hours, cells were harvested and immunoblotted (*non-specific band). FIG. 11H is an immunoblot for CAS. […] FIG. 11I is an immunoblot for MDM2 or CAs after immunoprecipitation with FLAG. BT474 and rBT474 cells were transfected with FLAG-CAS. […] After treatment with 10 μM MG132 for 5 hours, FLAG-CAS was retrieved by immunoprecipitation and association of endogenous MDM2 was analyzed by immunoblotting.

In the next assay the test system is Huwe1. Nature of the assay: Immunoblot of Huwe1 protein levels and stability. Type of assay: cell-based. To be noted: rSKBR3 cells, 1 μM lapatinib, 10 μM Nutlin-3a, 36 hours, z-VAD. The procedure: FIG. 13 is a set of immunoblots showing MDM2-mediated ubiquitylation and degradation of Huwe1 in lapatinib-resistant cells. […] Cells treated with 1 μM lapatinib were harvested at various time points and immunoblotted. […] FIG. 13B is an immunoblot for HA and actin. BT474 and rBT474 cells were transiently transfected with HA-tagged Huwe1 and subsequently treated with 50 μg/ml cycloheximide (CHX) and 1 μM lapatinib. FIG. 13C is an immunoblot for Huwe1 and MDM2. Immunoprecipitation was carried out using H1299 cell lysates and anti-Huwe1 antibody (or control IgG). FIG. 13D is an immunoblot for HA or MDM2 after immunoprecipitation with HA. BT474 cells were transfected with HA-tagged Huwe1 encoding the full-length protein, residues 1-2474, or residues 2473-4374. […] H1299 cells were transfected with empty vector, HA-Huwe1^W1202A, or HA-Huwe1 wild type. FIG. 13F is an immunoblot for Huwe1 and Actin. BT474 cells were transfected with increasing amounts of MDM2 and harvested after 48 hours. FIG. 13G is an immunoblot for Huwe1, MDM2, and actin. […] FIG. 13H is an immunoblot for Huwe1. Ubiquitylation of Huwe1 was reconstituted in vitro by incubating recombinant Huwe1 protein (Huwe1^1-2474) with E1, UbcH5 (E2), ubiquitin (Ub), and recombinant MDM2 protein in reaction buffer at 37° C. for 3 hours. […] Twenty-four hours later, the cells were replated and further transfected with HA-tagged Huwe1 (wild type). Forty-eight hours after siRNA transfection, the cells were treated with 1 μM lapatinib. After 24 hours of lapatinib treatment, 50 μg/ml cycloheximide (CHX) was added to the culture medium and cells were harvested at various time points for immunoblotting.

Assay [2] has as its system Mcl-1. Nature of the assay: 35[S]-Mcl-1 degradation in cell-free lysates. It is filed as cell-based. The following applies: resistant cell lysates, 5 μM ubiquitin aldehyde. The procedure:
FIG. 3 is a set of photographs showing that Mcl-1 is stabilized in lapatinib-resistant cells. […] FIG. 3B is a set of immunoblots showing the levels of HER2 and phospho-HER2 in untreated cells and cells treated with lapatinib. Cells were treated with or without lapatinib (1 μM) for 24 hours in the presence of the caspase inhibitor z-VAD (50 μM). The cells were harvested and cell lysates were immunoblotted using antibodies against phospho-HER2 (Y877) and total HER2. FIG. 3C is an immunoblot for phospho-AKT (T308) and total AKT. BT474 and rBT474 cells were treated with 1 μM lapatinib in the presence of 50 μM z-VAD. At the indicated time points, the cells were harvested and immunoblotted. FIG. 3D is an immunoblot for phospho-Erl1/2(T202/Y204) and total Erk1/2. BT474 and rBT474 cells were treated with 1 μM lapatinib in the presence of 50 μM z-VAD. At the indicated time points, the cells were harvested and immunoblotted. […] FIG. 3F is an autoradiograph showing the ^35[S] radioactivity in lysates containing ^35[S]-Mcl-1 at the indicated time points. ^35[S]-labeled Mcl-1 protein was incubated in cell-free lysates prepared from BT474 and rBT474 cells (top) or SKBR3 and rSKBR3 cells (bottom). […] FLAG-Mcl-1 was retrieved by immunoprecipitation using anti-flag agarose, and Mcl-1 ubiquitylation was analyzed by immunoblotting for HA (*non-specific band, **IgG heavy chain). […]

Method for rAU565-derived tumor: Six week-old female nude mice were purchased from NCI Frederic. Xenograft tumors were produced by injection into the mammary fat pad with cells (10×10^6). Tumor volumes were calculated every 3-4 days based on caliper measurements of the short (a) and long (b) tumor diameters (volume=a2b/2). […] Mice were dosed orally with vehicle alone, lapatinib (100 mg/kg), Nutlin-3 (100 mg/kg), or combination of both twice daily by gavage.
Method for rBT474 xenografts: Forty-eight hours after siRNA transfection, cells were treated with 1 μM lapatinib for 48 hours, and cells were harvested and subjected to Annexin V staining. The percentage of Annexin V-positive cells was analyzed by FACS. Results are expressed as a mean percentage±SEM and analyzed by t-test (*P<0.05). […] The oral administration of lapatinib (100 mg/kg, twice daily by oral gavage) began when the average tumor volume surpassed 300 mm^3. Results are expressed as a mean percentage±SEM. […] After 36 hours, cells were harvested and immunoblotted. […] BT474 and rBT474 cells were injected into the mammary fad pad of each mouse. When tumors developed to a size of 200 mm^3, the mice were randomly assigned to receive vehicle, lapatinib (100 mg/kg), Nutlin-3 (100 mg/kg), or Lapatinib+Nutlin-3 and treated twice daily by oral gavage. Results are expressed as a mean percentage±SEM. […] Percentage of apoptotic cell death was measured by FACS analysis using Annexin V. Results are expressed as a mean percentage±SEM of Annexin V-positive cells (*P<0.05 by t-test).
Six week-old female nude mice were purchased from NCI Frederic. Xenograft tumors were produced by injection into the mammary fat pad with cells (10×10^6). Tumor volumes were calculated every 3-4 days based on caliper measurements of the short (a) and long (b) tumor diameters (volume=a2b/2). […]

Take `COc1ccc(C2=N[C@@H](c3ccc(Cl)cc3)[C@@H](c3ccc(Cl)cc3)N2C(=O)N2CCNC(=O)C2)c(OC(C)C)c1` [Nutlin-3]: the AU565-derived tumor growth entry in the assay on AU565-derived tumor is recorded as “moderate tumor inhibitory effects”. Besides, the “growth of BT474-derived tumors” value with BT474 xenografts is “only modestly inhibited”. Further, in the assay on rBT474 xenografts, the rBT474-derived tumor growth entry is “Neither lapatinib nor Nutlin-3 inhibited”. The rAU565-derived tumor growth entry in the assay with rAU565-derived tumor is listed as “moderate tumor inhibitory effects”.
As for `COc1ccc(C2=N[C@@H](c3ccc(Cl)cc3)[C@@H](c3ccc(Cl)cc3)N2C(=O)N2CCNC(=O)C2)c(OC(C)C)c1` [Nutlin-3a], the “lapatinib-induced upregulation of Mcl-1” value in the assay on Mcl-1 [1] is listed as “suppressed”. For the same molecule, the “lapatinib-induced upregulation of PP5” value in the assay with PP5 is recorded as “suppressed”. Further, the CAS degradation entry in the assay with CAS is given as “significantly inhibited”. The “lapatinib-induced degradation of Huwe1” value in the assay with Huwe1 is “prevented”.
With ubiquitin aldehyde, the “degradation of 35[S]-Mcl-1” value in the assay on Mcl-1 [2] was “did not prevent the failure to degrade”.
